Reference: patent US6566547B1, “Fungicides” (Zeneca Limited, priority 1984, dated 2003)
Counter-ions that a name gives are not always drawn.

melting point: 37 to 38 °C
Structure (SMILES): CO/C=C(/C(=O)OC)c1ccccc1 (as salt: sulphate)
